Source: PubChem BioAssay (NCI)
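Grown in 96-well plates, cells were treated for 48 hours with each compound at five concentrations. Insufficient inhibition: endpoint recorded as highest concentration tested. GI50 = concentration required for 50% inhibition of growth. At the TGI there is no net growth.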

Assays:
Experiment in all cases: inhibition of tumour cell growth, NCI panel, 48 h
MDA-MB-435 = test system: MDA-MB-435
PC-3 prostate = test system: PC-3 prostate
K-562 leukemia = test system: K-562 leukemia
SF-268 CNS = test system: SF-268 CNS
786-0 renal = test system: 786-0 renal
RXF 393 renal = test system: RXF 393 renal
CCRF-CEM leukemia = test system: CCRF-CEM leukemia
SF-539 CNS = test system: SF-539 CNS
HT29 colon = test system: HT29 colon
UO-31 renal = test system: UO-31 renal

SMILES	GI50 (MDA-MB-435) [µM]	TGI (MDA-MB-435) [µM]	GI50 (PC-3 prostate) [µM]	TGI (PC-3 prostate) [µM]	GI50 (K-562 leukemia) [µM]	TGI (K-562 leukemia) [µM]	GI50 (SF-268 CNS) [µM]	TGI (SF-268 CNS) [µM]	GI50 (786-0 renal) [µM]	TGI (786-0 renal) [µM]	GI50 (RXF 393 renal) [µM]	TGI (RXF 393 renal) [µM]	GI50 (CCRF-CEM leukemia) [µM]	TGI (CCRF-CEM leukemia) [µM]	GI50 (SF-539 CNS) [µM]	TGI (SF-539 CNS) [µM]	GI50 (HT29 colon) [µM]	TGI (HT29 colon) [µM]	GI50 (UO-31 renal) [µM]	TGI (UO-31 renal) [µM]
CC(C)N(Cc1ccc(F)cc1)c1ccc(CO)c(Cl)c1	15	29.5	11.4	24.2	0.468	12.9	13.1	26.4	7	22.1	2.51	19.6	12.1	33.4	13.4	26.5	1.81	14.1	0.732	14.2
C#CCNC(=O)NC(CCCCNC(=O)OCc1ccccc1)C(=O)OCc1ccccc1 (stereo not given)		57.1		> 100		> 100		> 100		> 100		43.1		> 100		71.9		> 56.2		44.6
COc1ccc(-c2c3c(N)c4c(nc3nc3c2c(C)nn3-c2ccccc2)CCCC4)cc1	3.83	16.4	2.54	10.9	2.3	6.85	5.33	19.4	4.55	17.5	8.48	26.7	2.18	6.86	14.5	29.2	2.68	8.8	2.46	11.5
CC(=O)OCC(CC[CH2][Sn]([Cl])([Cl])[c]1ccccc1)OC(C)=O (stereo not given)					24.9	71.8	18.6	33.9	19.1	38	18.5	34.2	21.3	68.6	22	42.5	32.3	94.9	17.2	33
Cn1nc(-c2ccccc2)c(C(=O)/C=C/c2ccc(Cl)cc2)c(N2CCOCC2)c1=O						9.41		11.8		12.3		6.79		7.1		7.67		15.1		21.7
O=C1C(Nc2cccc(O)c2)=C(Sc2ccccc2)C(=O)N1Cc1ccccc1	11.1	27.4	2.15	14.3	3.71	17.1	10.5	26.8	20.7	39.4	5.07	25.6	1.88	10.1			14.3	29.8	4.98	18
O=C(Cc1ccccc1)C(c1ccccc1)S(=O)(=O)c1ccccc1 (stereo not given)						> 100		> 100		> 100		> 100		> 100		> 100		> 100		> 100
Cc1ccc(-n2c(-c3cc4c([nH]c5ccccc54)c(-c4cccc(O)c4)n3)n[nH]c2=S)cc1	0.649	2.75	2.48	42.4	0.523	> 100	1.32	10.6	2.6	12.8			0.682	11.6	0.306	1.06	1.36	3.68	2.56	15
COC1=C(OC)C(=O)C(CCCCCCCCCCO)=C(C)C1=O	1.89	3.9	3.76	15.6			9.61	30.7	9.61	21.7	10.1	23.9	3.15	20.4	7.49	20.3	14.5	31.6	12.7	26.6
Cc1ccc(C2=Nc3ccccc3SC(c3cccc4c3OCO4)C2)cc1 (stereo not given)						38.3		45.6		39.9				37.9		40.2		33.2		27.3
C[P+]1(c2ccccc2)CCCCC1						> 100		> 100		> 100		> 100		> 100		> 100		> 100		> 100
Cc1cc2c(c(=O)o1)C1=S(SC(c3ccccc3)=C1)S2 (stereo not given)				65.1		> 100		> 100		28.8		50.1		> 100		56.4		> 100		94.8
N#C/C(=C1\OC(=N)C(c2ccc(Cl)cc2Cl)C1=O)c1ccc(Cl)cc1Cl (stereo not given)						> 100		> 100		> 100		> 100				> 100		> 100		> 100
O=C(CO)C1CC2C=CC1C2 (stereo not given)						> 100		> 100		> 100		> 100		> 100		> 100		> 100		> 100
CC(N)CC(=O)O (stereo not given)						> 5000		> 5000		> 5000		> 5000		> 5000		> 5000		> 5000		> 5000
Cc1ccc(NC(=O)/C(C#N)=C/c2ccccc2)c(C)c1						> 100		> 100		> 100		> 100		> 100		> 100		> 100		> 100
C=CC[N+]1(CC)CCN=C1CCCCCCCCCCCCCCCCC (stereo not given)			0.237	0.702			0.236	0.61	0.788	2.11	0.205	0.836			0.752	2.05	0.375	1.24	1.14	2.43
CC(C)OC(=O)C1Cc2c([nH]c3ccccc23)C(c2ccccc2)N1 (stereo not given)						> 100		> 100		> 100		98.3		> 100		> 100		> 100		73.9
C=C1C=CC2(Br)OC3CC(C)(Cl)C(Br)CC13C2(C)C (stereo not given)						36.8		> 100		> 100				47.5		38.9		36.5		70.5
